# Reference: publication PMC12281424, “A Rac-specific competitive inhibitor of guanine nucleotide binding reduces metastasis in triple-negative breast cancer” (Cell Reports Medicine, 2025)
# Assays:
# [1] = target: Dopamine D1 (Homo sapiens, UniProt P21728); assay: Safety screen; assay type: binding
# Protocol: Blood cell counts, kinase profiler, safety screen, bacterial cytotoxicity, Ames, micronucleus assays were performed by the company Eurofins (France).
# [2] = target: Tie2 (h) (Homo sapiens, UniProt Q02763); assay: Kinase Profiler; assay type: biochemical
# Protocol: (§1) Blood cell counts, kinase profiler, safety screen, bacterial cytotoxicity, Ames, micronucleus assays were performed by the company Eurofins (France). The kinase profiler was performed by the company Eurofins (Discovery, Panlab and Cerep).
# [3] = system: CHO; assay: Micronucleus assay (HCA); assay type: cell-based
# Description: Data S4. Micronucleus assay-A41.
# Test Scored % Cytotox % Cytotox % Micronucleated t-Test Test
# Concentr. Cells Index CBPI NumbersCell Cells p-value Result […]
# Micronucleus (CHO - S9, HCA)
# [4] = target: Lck(h) (Homo sapiens, UniProt P06239); assay: Kinase Profiler; assay type: biochemical
# Protocol: (§2) The kinase profiler was performed by the company Eurofins (Discovery, Panlab and Cerep).
# [5] = target: MARK4(h) (Homo sapiens, UniProt Q96L34); assay: Kinase Profiler; assay type: biochemical
# Protocol: as §2
# [6] = target: Abl (H396P) (h) (Homo sapiens, UniProt P00519, H396P); assay: Kinase Profiler; assay type: biochemical
# Protocol: as §2
# [7] = target: DRAK2(h) (Homo sapiens, UniProt O94768); assay: Kinase Profiler; assay type: biochemical
# Protocol: as §1
# [8] = target: Arg(h) (Homo sapiens, UniProt P42684); assay: Kinase Profiler; assay type: biochemical
# Protocol: as §1
# [9] = target: TAF1L(h) (Homo sapiens, UniProt Q8IZX4); assay: Kinase Profiler; assay type: biochemical
# Protocol: as §2
# [10] = system: NIH/3T3 cell migration; assay: 1D cell migration (CYTOO plates); assay type: cell-based; conditions: 10^-5 M
# Protocol: NIH3T3cells (1000/well) were seeded in a 96 well plate with […] fibronectin stripes (CytooPlates Motility, CYTOO) in medium with 1% SVF and allowed to spread for 4 h before capturing time-lapse images for 24 h (image/10 min) on a Widefield Leica DMI 6000B drove with Metamorph software. Cells speed was measured with ImageJ software.
# Supplementary Fig. 3: Example of one pharmacophore model used for virtual screening. (a) The pharmacophore model shown was created based on RAC1 (grey) and NSC23766 (orange) interaction. The pharmacophore model is formed by two hydrogenbond acceptor(HBA)features,one orientedtowardsthe hydroxylgroup of Ser71 (S71) and the other towards the amine group of Gln74 (Q74), one hydrogen bond donor (HBD) feature pointed to the oxygenatom of Leu70 (L70) and two hydrophobic features (HY) located on certain carbon atoms of NSC23766 and facing residues Val36 (V36), Ala59 (A59), Tyr64 (Y64) and Leu67 (L67). The spheres correspond to locationconstraint. […] (b) Impact of different screening molecules (10^-5 M) on NIH/3T3 cell adhesion (xCELLingence Real-time cellanalysis, Agilent), migration (CYTOO Mobility plates) and proliferation (xCELLingence Real-time cell analysis, Agilent) .The level of RAC activation is determinedby the detection of RAC-GTP (pull-down assay) in NIH/3T3 cell treated with EGF (10 ng/mL) and the differentmolecules and normalize to the level of RAC activity measuredin the presenceof the reference RAC inhibitor EHT1864.
# Supplementary Fig. 4: A41 inhibits RAC-dependent cell functions. (a) Representative records of single NIH/3T3 cell migration on micropatterned fibronectin lines (CYTOO Mobility plates) in the absence (Control)and presenceA41 at 10^-5 M (left panel) and corresponding quantification of migration speed (right panel) (scale bar: 20µm). […] (b) Typical curves showing the cell index representing the adhesion of NIH/3T3 fibroblast (xCELLingence Real-time cell analysis, Agilent) under control condition (Control) and pre-treated with 10 µM A41 or NSC23766 (left panel) and corresponding quantification of cell adhesion speed (right panel). […]
# [11] = target: NLK(h) (Homo sapiens, UniProt Q9UBE8); assay: Kinase Profiler; assay type: biochemical
# Protocol: as §2
# [12] = target: PIP5K1a(h) (Homo sapiens, UniProt Q99755); assay: Kinase Profiler; assay type: biochemical
# Protocol: as §2
# [13] = target: PKCγ(h) (Homo sapiens, UniProt P05129); assay: Kinase Profiler; assay type: biochemical
# Protocol: as §2
# Chain of NLK(h) (Q9UBE8 whole entry): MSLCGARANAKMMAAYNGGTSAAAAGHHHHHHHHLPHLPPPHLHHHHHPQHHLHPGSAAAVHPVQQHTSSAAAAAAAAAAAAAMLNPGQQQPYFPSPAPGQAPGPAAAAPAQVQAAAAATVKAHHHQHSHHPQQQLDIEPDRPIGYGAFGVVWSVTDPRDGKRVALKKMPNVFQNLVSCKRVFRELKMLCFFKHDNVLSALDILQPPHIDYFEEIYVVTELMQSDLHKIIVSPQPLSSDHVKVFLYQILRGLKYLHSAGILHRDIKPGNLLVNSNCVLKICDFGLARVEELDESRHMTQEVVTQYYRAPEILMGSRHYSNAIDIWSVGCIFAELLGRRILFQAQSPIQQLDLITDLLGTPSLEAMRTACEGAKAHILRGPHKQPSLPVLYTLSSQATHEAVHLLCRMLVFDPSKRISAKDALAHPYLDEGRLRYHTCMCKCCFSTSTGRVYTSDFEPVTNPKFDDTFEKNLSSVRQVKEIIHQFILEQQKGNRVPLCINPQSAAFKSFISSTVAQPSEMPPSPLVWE
# Chain of Lck(h) (P06239 whole entry): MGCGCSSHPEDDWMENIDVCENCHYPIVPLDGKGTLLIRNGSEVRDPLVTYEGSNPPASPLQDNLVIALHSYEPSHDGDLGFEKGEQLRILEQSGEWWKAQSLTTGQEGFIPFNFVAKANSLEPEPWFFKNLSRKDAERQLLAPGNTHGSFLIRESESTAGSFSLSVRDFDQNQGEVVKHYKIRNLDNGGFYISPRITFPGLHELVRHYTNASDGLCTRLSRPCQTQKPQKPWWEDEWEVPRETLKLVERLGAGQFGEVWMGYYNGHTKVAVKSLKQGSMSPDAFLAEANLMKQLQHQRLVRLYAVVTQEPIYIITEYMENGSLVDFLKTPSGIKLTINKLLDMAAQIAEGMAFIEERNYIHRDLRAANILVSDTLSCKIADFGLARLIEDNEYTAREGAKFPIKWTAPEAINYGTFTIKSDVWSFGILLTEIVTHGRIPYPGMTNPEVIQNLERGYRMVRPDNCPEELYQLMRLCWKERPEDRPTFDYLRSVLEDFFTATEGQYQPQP
# Chain of MARK4(h) (Q96L34 whole entry): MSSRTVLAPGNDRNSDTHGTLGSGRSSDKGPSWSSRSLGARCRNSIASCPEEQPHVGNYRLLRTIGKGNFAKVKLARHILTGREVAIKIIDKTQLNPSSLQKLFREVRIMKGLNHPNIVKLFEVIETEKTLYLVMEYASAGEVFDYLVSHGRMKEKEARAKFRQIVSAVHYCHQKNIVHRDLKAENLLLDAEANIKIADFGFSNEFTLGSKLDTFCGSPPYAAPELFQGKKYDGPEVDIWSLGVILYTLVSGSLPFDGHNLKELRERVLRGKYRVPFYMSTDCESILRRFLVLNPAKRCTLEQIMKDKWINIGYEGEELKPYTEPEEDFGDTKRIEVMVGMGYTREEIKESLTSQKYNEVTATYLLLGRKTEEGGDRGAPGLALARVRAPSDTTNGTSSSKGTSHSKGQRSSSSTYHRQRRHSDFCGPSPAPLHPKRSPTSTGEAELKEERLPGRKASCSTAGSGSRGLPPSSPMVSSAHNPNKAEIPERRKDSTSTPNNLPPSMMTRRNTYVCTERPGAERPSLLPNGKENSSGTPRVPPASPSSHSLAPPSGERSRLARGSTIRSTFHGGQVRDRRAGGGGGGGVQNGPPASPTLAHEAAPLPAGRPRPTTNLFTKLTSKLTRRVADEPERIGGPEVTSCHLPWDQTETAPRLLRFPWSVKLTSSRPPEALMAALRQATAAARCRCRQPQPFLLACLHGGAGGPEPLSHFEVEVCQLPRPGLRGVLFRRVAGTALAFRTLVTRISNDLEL
# Chain of Arg(h) (P42684 whole entry): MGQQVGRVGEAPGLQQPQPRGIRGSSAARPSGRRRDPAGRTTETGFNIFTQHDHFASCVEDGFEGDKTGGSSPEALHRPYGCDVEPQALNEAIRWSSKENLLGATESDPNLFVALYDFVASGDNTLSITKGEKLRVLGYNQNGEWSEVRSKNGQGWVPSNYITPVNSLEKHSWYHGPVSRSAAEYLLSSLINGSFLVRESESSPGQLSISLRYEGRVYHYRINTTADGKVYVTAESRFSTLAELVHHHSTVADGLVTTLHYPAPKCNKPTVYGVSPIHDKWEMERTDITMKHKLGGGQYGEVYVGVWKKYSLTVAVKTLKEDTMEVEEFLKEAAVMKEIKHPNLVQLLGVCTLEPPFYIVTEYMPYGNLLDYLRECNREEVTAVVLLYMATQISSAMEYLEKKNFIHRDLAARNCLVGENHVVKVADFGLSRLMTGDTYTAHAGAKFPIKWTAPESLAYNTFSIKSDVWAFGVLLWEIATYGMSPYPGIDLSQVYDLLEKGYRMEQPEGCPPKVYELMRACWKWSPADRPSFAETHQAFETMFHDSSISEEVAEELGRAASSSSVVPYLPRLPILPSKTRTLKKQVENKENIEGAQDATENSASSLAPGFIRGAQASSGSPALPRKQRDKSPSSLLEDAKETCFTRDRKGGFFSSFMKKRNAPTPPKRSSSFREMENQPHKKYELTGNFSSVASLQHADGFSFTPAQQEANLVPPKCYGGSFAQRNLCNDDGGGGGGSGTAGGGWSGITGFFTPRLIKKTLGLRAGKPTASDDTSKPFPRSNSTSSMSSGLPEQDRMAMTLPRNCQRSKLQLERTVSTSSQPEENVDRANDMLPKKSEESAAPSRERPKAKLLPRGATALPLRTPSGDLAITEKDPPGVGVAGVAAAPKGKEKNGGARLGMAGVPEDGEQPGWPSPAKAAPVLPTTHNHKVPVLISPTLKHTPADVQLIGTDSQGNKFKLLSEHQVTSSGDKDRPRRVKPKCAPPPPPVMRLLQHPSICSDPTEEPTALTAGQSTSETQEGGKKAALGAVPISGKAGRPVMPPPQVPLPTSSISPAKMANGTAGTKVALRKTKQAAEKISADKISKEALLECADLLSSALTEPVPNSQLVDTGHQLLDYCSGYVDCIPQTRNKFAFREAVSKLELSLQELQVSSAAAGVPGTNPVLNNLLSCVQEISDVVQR
# Chain of Dopamine D1 (P21728 whole entry): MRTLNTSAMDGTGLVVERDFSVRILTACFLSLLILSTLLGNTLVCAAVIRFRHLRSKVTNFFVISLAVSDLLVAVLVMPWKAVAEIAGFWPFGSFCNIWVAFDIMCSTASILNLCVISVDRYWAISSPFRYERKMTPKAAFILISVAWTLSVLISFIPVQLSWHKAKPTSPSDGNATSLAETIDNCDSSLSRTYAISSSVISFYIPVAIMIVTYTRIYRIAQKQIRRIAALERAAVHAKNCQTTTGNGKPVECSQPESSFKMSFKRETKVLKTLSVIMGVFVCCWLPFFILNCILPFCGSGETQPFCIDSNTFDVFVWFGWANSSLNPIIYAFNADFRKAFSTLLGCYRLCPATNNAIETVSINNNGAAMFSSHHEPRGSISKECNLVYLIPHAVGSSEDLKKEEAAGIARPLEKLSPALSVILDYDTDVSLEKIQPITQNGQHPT
# Chain of PIP5K1a(h) (Q99755 whole entry): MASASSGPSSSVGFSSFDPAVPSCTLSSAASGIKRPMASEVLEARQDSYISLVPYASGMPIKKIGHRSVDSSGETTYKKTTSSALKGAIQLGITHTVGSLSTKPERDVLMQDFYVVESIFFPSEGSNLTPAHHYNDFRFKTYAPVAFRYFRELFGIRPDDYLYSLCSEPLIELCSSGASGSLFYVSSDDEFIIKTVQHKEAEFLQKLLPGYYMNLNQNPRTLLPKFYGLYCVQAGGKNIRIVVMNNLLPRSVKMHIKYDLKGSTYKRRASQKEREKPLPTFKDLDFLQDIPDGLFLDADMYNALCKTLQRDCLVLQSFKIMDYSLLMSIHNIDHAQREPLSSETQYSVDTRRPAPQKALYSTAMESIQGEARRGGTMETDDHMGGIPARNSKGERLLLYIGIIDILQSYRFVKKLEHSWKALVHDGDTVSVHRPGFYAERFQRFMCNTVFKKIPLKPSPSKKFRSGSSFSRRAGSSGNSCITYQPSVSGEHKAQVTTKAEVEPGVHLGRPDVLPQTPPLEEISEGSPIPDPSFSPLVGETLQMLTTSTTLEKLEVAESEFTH
# Chain of DRAK2(h) (O94768 whole entry): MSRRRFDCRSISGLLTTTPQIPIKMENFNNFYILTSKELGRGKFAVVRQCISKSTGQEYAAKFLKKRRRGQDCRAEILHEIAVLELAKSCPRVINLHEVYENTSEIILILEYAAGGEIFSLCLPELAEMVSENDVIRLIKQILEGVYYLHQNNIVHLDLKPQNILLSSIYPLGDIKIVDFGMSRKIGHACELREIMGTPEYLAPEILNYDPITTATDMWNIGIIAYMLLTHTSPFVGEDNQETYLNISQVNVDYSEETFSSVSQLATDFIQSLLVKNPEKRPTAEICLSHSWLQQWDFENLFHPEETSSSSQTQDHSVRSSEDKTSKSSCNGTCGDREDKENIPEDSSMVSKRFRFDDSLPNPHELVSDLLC
compound,measurement,setting,value
COc1ccc(OC)c(NS(=O)(=O)c2ccc(NC(=O)CCSc3ccc(C)cc3)cc2)c1 [Compound A41],% inh.,[1],17%
same,Activity(%),[2],110%
same,% Cytotox Cell Numbers,"[3]; - S9, 1.3E-04 M",64.6%
same,% Cytotox Index CBPI,"[3]; - S9, 1.3E-04 M",72.8%
same,% Micronucleated Cells,"[3]; - S9, 1.3E-04 M",13.39%
same,% Cytotox Cell Numbers,"[3]; - S9, 1.6E-05 M",26.4%
same,% Cytotox Index CBPI,"[3]; - S9, 1.6E-05 M",-23.9%
same,% Micronucleated Cells,"[3]; - S9, 1.6E-05 M",2.04%
same,% Cytotox Cell Numbers,"[3]; - S9, 2.5E-04 M",73.6%
same,% Cytotox Index CBPI,"[3]; - S9, 2.5E-04 M",73.8%
same,% Micronucleated Cells,"[3]; - S9, 2.5E-04 M",14.40%
same,% Cytotox Cell Numbers,"[3]; - S9, 3.1E-05 M",42.0%
same,% Cytotox Index CBPI,"[3]; - S9, 3.1E-05 M",8.1%
same,% Micronucleated Cells,"[3]; - S9, 3.1E-05 M",3.12%
same,% Cytotox Cell Numbers,"[3]; - S9, 6.3E-05 M",52.5%
same,% Cytotox Index CBPI,"[3]; - S9, 6.3E-05 M",65.8%
same,% Micronucleated Cells,"[3]; - S9, 6.3E-05 M",6.96%
same,% Cytotox Cell Numbers,"[3]; - S9, 7.8E-06 M",14.3%
same,% Cytotox Index CBPI,"[3]; - S9, 7.8E-06 M",-21.4%
same,% Micronucleated Cells,"[3]; - S9, 7.8E-06 M",1.13%
same,Activity(%),[4],74%
same,Activity(%),[5],105%
same,Activity(%),[6],92%
same,Activity(%),[7],90%
same,Activity(%),[8],122%
same,Activity(%),[9],110%
same,cell migration,[10],efficiently inhibited both functions
same,Activity(%),[11],99%
same,Activity(%),[12],100%
same,Activity(%),[13],112%
